{"source": "patent US20060160905A1", "about": "“Compositions and methods for inhibiting pain” (priority 2005, published 2006)", "system": "acetic acid-induced visceral pain", "test": "acetic acid-induced visceral pain mouse model (writhing/stretch count)", "format": "in vivo, mice (male Harlan ICR)", "settings": "for effect on inhibiting visceral pain (stretches vs. control mice), in words: doses from 0.37 mg/kg to 30.0 mg/kg SC; for number of stretches (writhes) per 30 minutes: 0.75% acetic acid IP half an hour later, control mice typically stretch 65-70 times/30 minutes", "protocol": "The acetic acid-induced visceral pain mouse model test is, of course, well known to those skilled in the art and is described in the seminal paper by Collier et al [Collier, H. O. J., L. C. Dinneen, C. A. Johnson and C. Schneider 1968. The abdominal constriction response and its suppression by analgesic drugs in the mouse.\nThe drugs are identified below as Monoamine #1-6. Five groups of five mice (male Harlan ICR, weight 35-50 g) were used to test each of the drugs. Control animals were tested as part of each experiment as well. The mice in each group were weighed and identified with a tail marking and were given a single dose of one of the drugs at 1 ml/100 g SC. The first group served as controls and was given only saline; the other five groups were given a drug at five doses ranging from 0.37 mg/kg up to 30.0 mg/kg. After the drug was administered, the mice were allowed to acclimate for one-half hour and were then given an IP injection of 0.75% Glacial acetic acid at a volume of 1 ml/100 g. Once the acid was injected, the mice were put into individual clear containers for observation. The mice were then watched continuously for one-half hour and the number of “stretches” or writhes were counted. The animal was considered to be stretching when its front legs stepped forward and at least one hind leg was extended out behind them. At the end of the thirty-minute observational period the mice were sacrificed with CO2. The same procedure was followed for all of the different compounds examined.", "data": [{"compound": "CCCCCCNC1CCCCC1", "note": "[Monoamine #6, N-hexylcyclohexanamine]", "values": [{"measurement": "effect on inhibiting visceral pain (stretches vs. control mice), in words", "result": "not effective against visceral pain"}, {"measurement": "effect on inhibiting visceral pain (stretches vs. control mice), in words", "setting": "listed as #6", "result": "little/no effect"}]}, {"compound": "CCNCCCc1ccccc1O.Cl", "note": "[Monoamine #2]", "values": [{"measurement": "number of stretches (writhes) per 30 minutes", "setting": "30 mg/kg SC single dose", "result": "47.7±22.4", "unit": "stretches/30 minutes"}, {"measurement": "effect on inhibiting visceral pain (stretches vs. control mice), in words", "result": "only a minimal effect on inhibiting visceral pain"}, {"measurement": "effect on inhibiting visceral pain (stretches vs. control mice), in words", "setting": "listed as #2", "result": "little/no effect"}]}, {"compound": "CCNCCc1ccccc1O.Cl", "note": "[Monoamine #1, 2-[2-(Ethylamino)ethyl]phenol Hydrochloride]", "values": [{"measurement": "number of stretches (writhes) per 30 minutes", "setting": "10 mg/kg SC single dose", "result": "25.9±14.8", "unit": "stretches/30 minutes"}, {"measurement": "number of stretches (writhes) per 30 minutes", "setting": "30 mg/kg SC single dose", "result": "13.1±11.7", "unit": "stretches/30 minutes"}, {"measurement": "effect on inhibiting visceral pain (stretches vs. control mice), in words", "setting": "Hydrochloride", "result": "statistical significance at all doses tested"}, {"measurement": "effect on inhibiting visceral pain (stretches vs. control mice), in words", "setting": "listed as #1, Hydrochloride", "result": "effective at all of the doses tested"}]}, {"compound": "CCNCCCCC1CCCCC1", "note": "[Monoamine #5, N-(4-cyclohexylbutyl)-N-ethylamine]", "values": [{"measurement": "effect on inhibiting visceral pain (stretches vs. control mice), in words", "result": "significantly fewer stretches than the control mice"}, {"measurement": "effect on inhibiting visceral pain (stretches vs. control mice), in words", "setting": "listed as #5", "result": "effective at all of the doses tested"}]}, {"compound": "CCN(CCCc1ccccc1O)Cc1ccccc1.CS(=O)(=O)O", "note": "[Monoamine #4]", "values": [{"measurement": "effect on inhibiting visceral pain (stretches vs. control mice), in words", "result": "not effective against visceral pain"}, {"measurement": "effect on inhibiting visceral pain (stretches vs. control mice), in words", "setting": "listed as #4", "result": "little/no effect"}]}, {"compound": "CCNCCCCc1ccccc1O", "note": "[Monoamine #3]", "values": [{"measurement": "effect on inhibiting visceral pain (stretches vs. control mice), in words", "result": "significantly fewer stretches than the control mice"}, {"measurement": "effect on inhibiting visceral pain (stretches vs. control mice), in words", "setting": "listed as #3", "result": "effective at all of the doses tested"}]}]}
